# In ChEMBL document CHEMBL1146156, “Fish venom (Pterios volitans) peptide reduces tumor burden and ameliorates oxidative stress in Ehrlich's ascites carcinoma xenografted mice” (2006):
# What was measured:
# Format in all cases: functional
# Mus musculus [1] = test: Increase in liver GST activity of Ehrlich's ascites carcinoma xenografted Swiss Albino mouse at 20 mg/kg
# Mus musculus [2] = test: Effect on GSH content in liver of Ehrlich's ascites carcinoma xenografted Swiss Albino mouse at 20 mg/kg measured per 100 g tissue
# Mus musculus [3] = test: Decrease in body weight of Ehrlich's ascites carcinoma xenografted Swiss albino mouse at 20 mg/kg
# Mus musculus [4] = test: Increase in liver SOD activity of Ehrlich's ascites carcinoma xenografted Swiss Albino mouse at 20 mg/kg
# Mus musculus [5] = test: Effect on hydroperoxide levels in liver of Ehrlich's ascites carcinoma xenografted Swiss Albino mouse at 20 mg/kg measured per 100 g tissue
# Mus musculus [6] = test: Increase in liver catalase activity of Ehrlich's ascites carcinoma xenografted Swiss Albino mouse at 20 mg/kg
# Mus musculus [7] = test: Increase in life span of Ehrlich's ascites carcinoma xenografted Swiss Albino mouse at 20 mg/kg
# Mus musculus [8] = test: Effect on TBARS levels in liver of Ehrlich's ascites carcinoma xenografted Swiss Albino mouse at 20 mg/kg measured per 100 g tissue
# Mus musculus [9] = test: Increase in mean survival time of Ehrlich's ascites carcinoma xenografted Swiss Albino mouse at 20 mg/kg
# Mus musculus [10] = test: Increase in liver glutathione peroxidase activity of Ehrlich's ascites carcinoma xenografted Swiss Albino mouse at 20 mg/kg
smiles,measurement,setting,value
O=c1[nH]cc(F)c(=O)[nH]1 [FLUOROURACIL],Activity,Mus musculus [1],16.2 U/mg
same,Activity,Mus musculus [2],3.65 mmol
same,Activity,Mus musculus [3],25.2 g
same,Activity,Mus musculus [4],3.96 U/mg
same,Activity,Mus musculus [5],0.85 mmol
same,Activity,Mus musculus [6],20.4 U/mg
same,Activity,Mus musculus [7],119.49%
same,Activity,Mus musculus [8],0.99 mmol
same,MST,Mus musculus [9],39.5 days
same,Activity,Mus musculus [10],6.97 U/mg
